Experimental data as given in publication PMC9959130, “Effects of Side Chain and Peptide Bond Modifications on the Targeting Properties of Stabilized Minigastrin Analogs” (Pharmaceuticals, 2023).
Read-outs that look alike come from different tables or passages of the source. Where a SMILES comes first, the peptide text is derived from it. [ ]: non-standard residue; d: D form. The star is where a group is joined. DOTA = O=C(O)CN1CCN(CC(=O)O)CCN(CC(=O)*)CCN(CC(=O)O)CC1; 1Nal = N[C@@H](Cc1cccc2ccccc12)C(=O)O; NMeNle = CCCC[C@H](NC)C(=O)O

What was measured:
[1] = Binding to serum proteins (incubation in human serum, Sephadex G-50 size exclusion chromatography); type: in vitro ADME; conditions: radiolabeled peptide (111In where no radiometal named), 37 °C, 24 h after incubation, Sephadex G-50, γ-counter, n = 2
Procedure: Protein binding was determined by incubation of the radiolabeled peptides in human serum at 37 °C (500 pmol/mL, n = 2). For the time points of 1, 4, and 24 h after incubation, samples of 25 µL were subjected to Sephadex G-50 size exclusion chromatography (GE Healthcare Illustra, Little Chalfont, UK). The column and the eluate were measured using the γ-counter and the percentage of protein binding was calculated.

[2] = In vitro stability in human serum (intact radiopeptide by radio-HPLC); type: in vitro ADME; conditions: fresh human serum, 37 °C, n = 2
Procedure: In vitro stability studies were performed in human serum (n = 2). The radiolabeled peptides (1000 pmol/mL) were incubated at 37 °C and a sample of 100 μL was taken at 1, 4, and 24 h after incubation. After the precipitation of proteins with ACN at 1:1.5 (v/v), centrifugation (14,000 rpm, 2 min, centrifuge 5424, Eppendorf AG, Germany) and dilution with water at 1:1 (v/v), an aliquot of 100 μL of this solution was analyzed by HPLC. Radioligand breakdown was monitored and the percentage of intact radiopeptide was calculated using Chromeleon Dionex Software (Version 7.2.9.11323). Additionally, the radiolabeled peptides (1000 pmol/mL) were incubated in PBS (n = 1) at room temperature to confirm the complex stability as a control.

[3] = Distribution coefficient (LogD) in octanol/PBS; type: physicochemical; conditions: radiolabeled peptide (111In-labeled where the label names no radiometal), shake-flask octanol/PBS, 100 pmol/mL, 15 min shaking at 1500 rpm, γ-counter, mean ± SD, n = 8
Procedure: The distribution coefficient (LogD) in octanol/PBS was determined by mixing 0.5 mL of the radiolabeled DOTA peptides diluted in PBS (100 pmol/mL) and 0.5 mL octanol in a 1.5 mL microcentrifuge tube (n = 8). After shaking for 15 min (MS3 Basic, IKA, Staufen, Germany) at 1500 rpm and a waiting time of 10 min to ensure appropriate separation of the two phases, 100 µL aliquots of each phase were pipetted into 4.5 mL tubes. The tubes were measured using a γ-counter (2480 Wizard2 3″, PerkinElmer Life Sciences and Analytical Instruments, formerly Wallac Oy, Turku, Finland) and the LogD value was determined using following equation: LogD=Log(cpmoctanol phase/cpmPBS phase)

[4] = Biodistribution in BALB/c nude mice bearing A431-CCK2R/A431-mock xenografts; type: in vivo; conditions: female, athymic BALB/c nude, mouse, iv, 20 pmol, total radioactivity, ~20 pmol, 4 h p.i. (indium-111 or lutetium-177), mean ± SD n = 4; for tissue to tissue ratio at 4 h: BALB/c nude mice; for tissue uptake at 4 h: xenografted BALB/c nude mice, i.v.
Procedure: The overall biodistribution and tumor targeting properties of selected radiolabeled peptides were evaluated in female athymic BALB/c nude mice (Charles River, Sulzfeld, Germany, age of 7 to 9 weeks). After tumor induction with 2 × 10^6 A431-CCK2R or A431-mock cells (subcutaneously injected in 200 μL DMEM into the right and left flank) and a waiting period of 10–14 days (sufficient to achieve tumors of ∼0.25 g), mice were randomly divided into groups of four and treated with a bolus injection of 150 µL of the injectable solution containing the radiolabeled peptide via a lateral tail vein to achieve an injected radioactivity of 150–200 kBq and a total injected peptide amount of ~20 pmol (n = 4 for each radiopeptide). For DOTA-[(N-Me)1Nal^8]MGS5, additional biodistribution studies were performed with gallium-68 (~0.5 MBq, 20 pmol) and lutetium-177 (~0.5 MBq, 20 pmol). The animals were euthanatized by cervical dislocation at 1 h (gallium-68) or 4 h p.i. (indium-111/ lutetium-177). The tumors and other tissues (blood, lung, heart, muscle, spleen, intestine, liver, kidney, stomach, and pancreas) were dissected, weighed, and the radioactivity measured in the γ-counter. The rest of the body and a standard of the solution injected was also measured together with the collected samples. The percentage of injected activity per gram of tissue (% IA/g) and the tumor-to-organ activity ratio of selected tissues were calculated for each mouse and time point studied. Origin software (Microcal Origin 6.1, Northampton, MA, USA) was used for statistical analysis (independent t-test for two populations; significance level p < 0.05).

[5] = A431-CCK2R xenograft / blood, A431-CCK2R xenograft, read-out: tumor-to-organ ratio: blood
[6] = A431-CCK2R xenograft / stomach, A431-CCK2R xenograft, read-out: tumor-to-organ ratio: stomach
[7] = A431-CCK2R xenograft, read-out: Uptake in A431-CCK2R xenograft
[8] = A431-mock xenograft, read-out: Uptake in A431-mock xenograft
[9] = blood, read-out: Uptake in blood
[10] = heart, read-out: Uptake in heart
[11] = intestine, read-out: Uptake in intestine
[12] = kidneys, read-out: Uptake in kidneys
[13] = liver, read-out: Uptake in liver
[14] = muscle, read-out: Uptake in muscle
[15] = pancreas, read-out: Uptake in pancreas
[16] = spleen, read-out: Uptake in spleen
[17] = stomach, read-out: Uptake in stomach
[18] = radiolabeled peptide (111In where no radiometal named), 24 h after incubation
[19] = A431-CCK2R xenograft / kidney, A431-CCK2R xenograft, read-out: tumor-to-organ ratio: kidney

Structure (SMILES) | LogD ([3]; read-out: LogD) | tissue to tissue ratio at 4 h [4, 5] | tissue to tissue ratio at 4 h [4, 6] | tissue uptake at 4 h [4, 7] [%ID/g] | tissue uptake at 4 h [4, 8] [%ID/g] | tissue uptake at 4 h [4, 9] [%ID/g] | tissue uptake at 4 h [4, 10] [%ID/g] | tissue uptake at 4 h [4, 11] [%ID/g] | tissue uptake at 4 h [4, 12] [%ID/g] | tissue uptake at 4 h [4, 13] [%ID/g] | tissue uptake at 4 h ([4]; lung, read-out: Uptake in lung) [%ID/g] | tissue uptake at 4 h [4, 14] [%ID/g] | tissue uptake at 4 h [4, 15] [%ID/g] | tissue uptake at 4 h [4, 16] [%ID/g] | tissue uptake at 4 h [4, 17] [%ID/g] | remaining at 24 h, 1000 pmol/mL [2, 18] [%] | tissue to tissue ratio at 4 h [4, 19] | also measured
CCCC[C@@H](C(=O)N[C@@H](CC(=O)O)C(=O)N[C@@H](Cc1cccc2ccccc12)C(=O)NC)N(C)C(=O)[C@H](Cc1c[nH]c2ccccc12)NC(=O)CNC(=O)[C@H](Cc1ccc(O)cc1)NC(=O)[C@H](C)NC(=O)[C@@H](CCC(=O)O)NC(=O)CN1CCN(CC(=O)O)CCN(CC(=O)O)CCN(CC(=O)O)CC1 [DOTA-MGS5[NHCH3]] |  |  |  |  |  |  |  |  |  |  |  |  |  |  |  |  |  | Binding to Serum Proteins (%) ([1]; 500 pmol/mL): 40.9 ± 3.1%; Intact Radiopeptide in Human Serum (%) ([2]; radiolabeled peptide (111In where no radiometal named), 1000 pmol/mL, 24 h after incubation): 98.1 ± 0.4%; LogD [3]: −2.3 ± 0.2
CCCC[C@@H](C(=O)N[C@@H](CC(=O)O)C(=O)N[C@@H](Cc1cccc2ccccc12)C(=O)NC)N(C)C(=O)[C@H](Cc1c[nH]c2ccccc12)NC(=O)CNC(=O)[C@H](Cc1ccc(O)cc1)NC(=O)[C@H](C)NC(=O)[C@@H](CCC(=O)O)NC(=O)CN1CCN(CC(=O)O)CCN(CC(=O)O)CCN(CC(=O)O)CC1 [[^111In]In-DOTA-MGS5[NHCH3], metal not drawn] | -2.33 ± 0.23 | 69.9 ± 38.3 | 4.33 ± 0.56 | 4.16 ± 1.01 | 0.19 ± 0.08 | 0.08 ± 0.07 | 0.06 ± 0.02 | 0.59 ± 0.46 | 4.42 ± 1.15 | 0.36 ± 0.11 | 0.07 ± 0.01 | 0.04 ± 0.02 | 0.4 ± 0.04 | 0.13 ± 0.02 | 0.96 ± 0.17 |  |  | fraction unbound at 24 h, 500 pmol/mL [1]: 0.591
CCCC[C@@H](C(=O)N[C@@H](CC(=O)O)C(=O)N[C@@H](Cc1ccc2ccccc2c1)C(N)=O)N(C)C(=O)[C@H](Cc1c[nH]c2ccccc12)NC(=O)CNC(=O)[C@H](Cc1ccc(O)cc1)NC(=O)[C@H](C)NC(=O)[C@@H](CCC(=O)O)NC(=O)CN1CCN(CC(=O)O)CCN(CC(=O)O)CCN(CC(=O)O)CC1 [[^111In]In-DOTA-[2Nal^8]MGS5, metal not drawn] | -1.71 ± 0.19 | 399 ± 89.6 | 3.66 ± 0.64 | 25.4 ± 4.45 | 0.17 ± 0.04 | 0.06 ± 0.003 | 0.08 ± 0.01 | 0.95 ± 0.26 | 4.21 ± 0.29 | 0.66 ± 0.07 | 0.13 ± 0.03 | 0.04 ± 0.01 | 1.84 ± 0.52 | 0.18 ± 0.05 | 7.03 ± 1.1 | > 90 | 6.04 ± 0.87 | 
CCCC[C@@H](C(=O)N[C@@H](CC(=O)O)C(=O)N(C)[C@@H](Cc1cccc2ccccc12)C(N)=O)N(C)C(=O)[C@H](Cc1c[nH]c2ccccc12)NC(=O)CNC(=O)[C@H](Cc1ccc(O)cc1)NC(=O)[C@H](C)NC(=O)[C@@H](CCC(=O)O)NC(=O)CN1CCN(CC(=O)O)CCN(CC(=O)O)CCN(CC(=O)O)CC1 [[^111In]In-DOTA-[(N-Me)1Nal^8]MGS5, metal not drawn] |  | 281 ± 88.5 | 11.5 ± 1.82 |  | 0.38 ± 0.08 | 0.19 ± 0.07 | 0.14 ± 0.03 | 0.81 ± 0.1 | 6.33 ± 0.89 | 1.39 ± 0.16 | 0.21 ± 0.07 | 0.12 ± 0.05 |  | 0.32 ± 0.05 |  | 99.6 ± 0.1 | 7.55 ± 0.48 | remaining at 4 h, 1000 pmol/mL ([2]; human, radiolabeled peptide, 4 h after incubation): 99.3 ± 0.9%
CCCC[C@@H](C(=O)N[C@@H](CC(=O)O)C(=O)N[C@@H](Cc1cccc2ccccc12)C(N)=O)N(C)C(=O)[C@H](Cc1c[nH]c2ccccc12)NC(=O)CNC(=O)[C@H](Cc1ccc(O)cc1)NC(=O)[C@H](C)NC(=O)[C@@H](CCCCN)NC(=O)CN1CCN(CC(=O)O)CCN(CC(=O)O)CCN(CC(=O)O)CC1 [[^111In]In-DOTA-[DLys^1]MGS5, metal not drawn] ({DOTA}-[dK]AYGW[NMeNle]D[1Nal]-NH2) | -1.31 ± 0.11 | 176 ± 31.9 | 4.69 ± 1.19 | 33.9 ± 9.53 | 0.56 ± 0.27 | 0.2 ± 0.09 | 0.22 ± 0.06 | 1.96 ± 0.87 | ~20 | 1.94 ± 0.52 | 0.3 ± 0.11 | 0.13 ± 0.05 | 2.27 ± 1.2 | 0.54 ± 0.12 | 7.73 ± 3.49 |  | < 2 | 
